Test results published in patent publication US11246320B2, “Casein glycomacropeptide (CGMP) oligomers” (Chr. Hansen A/S, priority 2017, dated 2022).
One block for each compound: values may come before it.

How the values were obtained:
[1] = cited from earlier work; for pKsp: comparison values
[2] = Stability of curcumin, free versus encapsulated (absorbance at 420 nm); assay type: physicochemical
Method: To prepare a stock solution of curcumin, 100 mg of commercial turmeric powder was suspended in 10 mL of ethanol and vortex and kept for inversion for 2 hours. The tube was closed and covered with aluminum foil to prevent the degradation of curcumin by oxidation and UV light. Next, the suspension was centrifuged at 13200 rpm for 30 minutes to separate the insoluble particles form the ethanol solubilized curcumin. The supernatant was carefully collected and this was used as a stock solution of curcumin in ethanol. The stock solution was adjusted with ethanol so that a 100 x dilution of this stock solution in MQ-Water gave an absorbance of 2±0.1 at 420 nm, when measured immediately after the dilution. If stored at ambient conditions, the absorbance decreases rapidly due to degradation of curcumin by oxidation and light.
To load curcumin 10 μL of curcumin stock solution was added to 990 μL of buffer (±lactase) which was used for encapsulation. The loaded curcumin was not removed by repeated washing and this indicated good encapsulation and stabilization. The microcapsule suspension with encapsulated curcumin appeared yellow.

Compound: [Ca+2].[OH-].[OH-] [calcium hydroxide]
pKsp [1]: 5.3

Compound: O=C([O-])[O-].[Ca+2] [calcium carbonate]
pKsp [1]: 8.47

Compound: O=P([O-])([O-])[O-].O=P([O-])([O-])[O-].[Ca+2].[Ca+2].[Ca+2] [CaP, Ca3(PO4)2]
Ksp ([1]; 25° C.): 2.07×10^−33

increase of half-life ([2]; encapsulated in CaP particles stabilized by oligo-CGMP or in liposomes, versus storage at ambient conditions): 5-10 times
stability as indicated by half and quarter-life ([2]; encapsulated in oligo-CGMP micelles): significantly increased
Compound: COc1cc(/C=C/C(=O)CC(=O)/C=C/c2ccc(O)c(OC)c2)ccc1O [curcumin]
